From patent publication US5314932A, “Antifouling coating and method for using same” (priority 1993, dated 1994)

Columns and labels:
[1] = test system: nauplius stage larvae; assay: Toxicity Assay for Nauplius Larvae (naupliar toxicity); conditions: for Naupliar Toxicity (LD50): lethal dose killing 50 percent of naupliar stage larvae, 100 kDa-filtered seawater, 28° C., approx. 15 h light and 9 h darkness, 1440 min; for LD50 compared with TBT, digoxigenin, and digoxin: nauplius stage larvae, comparison with known antifouling agents
Experimental: (§1) Adult individuals of the acorn barnacle Balanus amphritrite Darwin were collected from the Duke University Marine Laboratory seawall in Beaufort, N.C. Collected specimens were crushed, and the nauplius stage larvae released therefrom were cultured to cyprid stage for cyprid-state assays according to the methods of Rittschof et al., J. Exp. Mar. Biol. Ecol. 82:131-146 (1984).
Toxicity assays were conducted by adding nauplius stage larvae to Falcon 50×9 mm polystyrene Petri dishes containing 5 ml of 100 kDa-filteredseawater. Experimental dishes received a dose of bufalin, cinobufatalin, TBT, digoxigenin, or digoxin. Doses receiving no test compound served as negative controls. The dishes were incubated at 28° C. under light for approximately 15 hours and in darkness for approximately 9 hours.
After incubation, the dishes were examined under a dissecting microscope to determine whether the larvae were alive or dead. […] The number of dead and living larvae was counted and recorded.
Data for toxicity assays performed on nauplius stage larvae is summarized in Table 1, which lists the lethal dose for each compound required to kill 50 percent of naupliar stage larvae in a sample (LD50).

[2] = test system: cyprid stage larvae; format: in vivo, acorn barnacle Balanus amphritrite Darwin; conditions: for Cyprid Settlement (ED50): dose which prevents settlement of 50 percent of cyprid stage larvae (EC50), three-day old cyprids, 100 kDa-filtered seawater (approx. 35 ppt), 28° C., approx. 15 h light and 9 h darkness; for EC50 compared with TBT, digoxigenin, and digoxin: cyprid stage larvae settlement, comparison in words
Experimental: as §1
Settlement assays were performed as previously described by Rittschof et al., J. Chem. Ecol. 11:551-563 (1985). Three-day old cyprid larvae were added to Falcon 50×9 mm polystyrene petri dishes. Each dish contained 5 ml of 100 kDa-filtered seawater (approximately 35 ppt salinity). […] Doses were varied in an effort to determine inhibition levels. Dishes receiving no test compound served as negative controls. The number of replicate dishes used in each assay ranged from 2 to 4, depending on larval availability. The dishes were incubated at 28° C. under light for approximately 15 hours and in darkness for approximately 9 hours.
After incubation, the dishes were examined under a dissecting microscope to determine whether larvae were still alive. The larvae were then euthanized by the addition of several drops of 10 percent formalin. The numbers of attached and unattached larvae were then counted.
Settlement was calculated as the percentage of total larvae attached to the dish. Differences in the rate of settlement for test dishes versus controls were assessed for statistical significance through the use of a G test for independence described by Sokal et al., Biometry (Freeman & Co., San Francisco 1981).

Row | Structure (SMILES) | Naupliar Toxicity (LD50) [1] | Cyprid Settlement (ED50) [2] | LD50 compared with TBT, digoxigenin, and digoxin [1] | EC50 compared with TBT, digoxigenin, and digoxin [2]
1 | C[C@]12CC[C@H](O)C[C@H]1CC[C@@H]1[C@@H]2C[C@@H](O)[C@]2(C)[C@@H](C3=CC(=O)OC3)CC[C@]12O [Digoxigenin, reference compound] | 3,720 ng/L | > 50,000 ng/L | – | –
2 | CC(=O)O[C@H]1[C@H]2O[C@]23[C@@H]2CC[C@@H]4C[C@@H](O)CC[C@]4(C)[C@H]2CC[C@]3(C)[C@H]1c1ccc(=O)oc1 [Cinobufagin, 16-(acetyloxy)-14,15-epoxy-3 hydroxybufa-20,22-enolide] | 37 ng/L | 162 ng/L | much lower LD50 values than known antifouling agents TBT, digoxigenin, and digoxin | much lower EC50 values than TBT, digoxigenin, and digoxin
3 | C[C@H]1O[C@@H](O[C@H]2[C@@H](O)C[C@H](O[C@H]3[C@@H](O)C[C@H](O[C@H]4CC[C@@]5(C)[C@H](CC[C@@H]6[C@@H]5C[C@@H](O)[C@]5(C)[C@@H](C7=CC(=O)OC7)CC[C@]65O)C4)O[C@@H]3C)O[C@@H]2C)C[C@H](O)[C@@H]1O [Digoxin, reference compound] | 5,450 ng/L | 6,300 ng/L | – | –
4 | CCC[CH2][Sn]([Cl])([CH2]CCC)[CH2]CCC [TBT Chloride, tri-n-butyl tin chloride, reference compound] | ~3,400 ng/L | – | – | –
5 | CC(=O)O[C@H]1[C@H]2O[C@]23[C@@H]2CC[C@]4(O)C[C@@H](O)CC[C@]4(C)[C@H]2CC[C@]3(C)[C@H]1c1ccc(=O)oc1 [Cinobufotalin, 16-(acetyloxy)-14,15-epoxy-3,5dihydroxybufa-20,22-enolide] | 837 ng/L | 2,600 ng/L | much lower LD50 values than known antifouling agents TBT, digoxigenin, and digoxin | much lower EC50 values than TBT, digoxigenin, and digoxin
6 | C[C@]12CC[C@H](O)C[C@H]1CC[C@@H]1[C@@H]2CC[C@]2(C)[C@@H](c3ccc(=O)oc3)CC[C@]12O [Bufalin, 3,14-dihydroxybufa-20,22 dienolide] | 27 ng/L | 19 ng/L | much lower LD50 values than known antifouling agents TBT, digoxigenin, and digoxin | much lower EC50 values than TBT, digoxigenin, and digoxin
